Data taken from ChEMBL document CHEMBL5528063, “Antitrypanosomal Chloronitrobenzamides” (J Med Chem, 2024).
The source made the active and inactive calls. No cut-off for these calls is given here.

Tests used:
[1] = system: Trypanosoma brucei brucei; assay: Antitrypanosomal activity against Trypanosoma brucei brucei 427 assessed as inhibition of parasite proliferation incubated for 48 hrs by CellTiter-Glo luminescent assay; type: functional, organism-based; settings: Trypanosoma brucei, 427, 48 h
[2] = Cytotoxicity against human BJ cells assessed as inhibition of cell growth incubated for 72 hrs by CellTiter-Glo luminescence assay; type: toxicity, cell-based
[3] = Aqueous solubility of compound in 1-propanol at pH 7.4 incubated for 18 hrs by UV spectrum analysis; type: physicochemical; settings: for solubility at 18 h: 1-propanol (aqueous, pH 7.4), pH 7.4
[4] = Metabolic stability in […] mouse liver microsomes assessed as half-life at 20 uM measured after 2 hrs by UPLC-MS analysis; type: ADME, Microsome
[5] = system: Trypanosoma brucei brucei; assay: Trypanocidal activity against Trypanosoma brucei brucei 427 assessed as reduction in parasitemia at 2.2 uM incubated for 4 days by clonal dilution based CellTiter-Glo assay; type: functional, organism-based; settings: time 4.0 day
[6] = system: Trypanosoma brucei brucei; assay: Antitrypanosomal activity against Trypanosoma brucei brucei 427 assessed as inhibition of parasite proliferation at 0.7 to 15000 nM incubated for 48 hrs by CellTiter-Glo luminescent assay; type: functional, organism-based; settings: dose 0.7-15000 nM

Compound | EC50 [1] | EC50 at 72 h [2] | also measured
Cc1ccc(-c2nc3ccccc3s2)cc1NC(=O)c1cc(C(=O)O)ccc1Cl | > 5 µM | > 15 µM | 
Cc1ccc(-c2nc3ccccc3s2)cc1NC(=O)c1cnccc1Cl | 0.044 µM | > 25 µM | solubility at 18 h [3]: < 1 µM; half-life at 20 µM [4]: 12 min
O=C(Nc1cc(-c2nc3ccccc3s2)ccc1Br)c1cc([N+](=O)[O-])ccc1Cl | 0.22 µM | > 20 µM | solubility at 18 h [3]: < 1.56 µM; half-life at 20 µM [4]: 1.7 min
Cc1ccc(-c2nc3ccccc3s2)cc1NC(=O)c1cc([N+](=O)[O-])ccc1O | > 7 µM | > 14 µM | 
CC(=O)Nc1ccc(Cl)c(C(=O)Nc2cc(-c3nc4ccccc4s3)ccc2C)c1 | > 7 µM | > 15 µM | 
COC(=O)c1ccc(Cl)c(C(=O)Nc2cc(-c3nc4ccccc4s3)ccc2C)c1 | > 16.1 µM | > 28 µM | 
O=C(Nc1cccc(-c2nccs2)n1)c1cnccc1Cl | > 44 µM | > 18 µM | 
Cc1ccc(-c2nc3ncccc3o2)cc1NC(=O)c1cc([N+](=O)[O-])ccc1Cl | 0.55 µM | > 25 µM | solubility at 18 h [3]: < 1.56 µM; half-life at 20 µM [4]: 1.2 min
Cc1ccc(-c2nc3ccccc3s2)cc1NC(=O)c1cc(C(F)(F)F)ccc1Cl | > 6 µM | > 15 µM | 
O=C(Nc1cccc(-c2nc3ccccc3s2)n1)c1cc([N+](=O)[O-])ccc1Cl | > 7 µM | > 15 µM | 
Cc1ccc(-c2nc3ccccc3s2)cc1NC(=O)c1cc(C#N)ccc1Cl | > 6 µM | > 15 µM | 
C[S+]([O-])c1ccc(Cl)c(C(=O)Nc2cccc(-c3nc4ccccc4s3)c2)c1 (stereo not given) | > 8 µM | > 25 µM | 
O=C(Nc1cccc(-c2nccs2)c1)c1cc([N+](=O)[O-])ccc1Cl | > 7 µM | > 18 µM | 
O=C(Nc1ccc(Cl)c(-c2nc3ncccc3o2)c1)c1cc([N+](=O)[O-])ccc1Cl | > 6 µM | > 26 µM | 
Cc1nc(-c2cccc(NC(=O)c3cc([N+](=O)[O-])ccc3Cl)c2)sc1C | 2.22 µM | > 17 µM | 
Cc1ccc(-c2nc3ccccc3s2)cc1NC(=O)c1cc([N+](=O)[O-])ccc1F | 0.004 µM | > 17 µM | solubility at 18 h [3]: < 1.56 µM; half-life at 20 µM [4]: 21 min
Cc1ccc(-c2nc3ccccc3s2)cc1NC(=O)c1cc(C(N)=O)ccc1Cl | > 11 µM | > 22 µM | 
COc1ccc([N+](=O)[O-])cc1C(=O)Nc1cc(-c2nc3ccccc3s2)ccc1C | > 1 µM | > 2 µM | 
Cc1ccc(-c2nc3ccccc3s2)cc1NC(=O)c1cc(N)ccc1Cl | > 5 µM | > 15 µM | 
CS(=O)(=O)c1ccc(Cl)c(C(=O)Nc2cccc(-c3nc4ccccc4s3)c2)c1 | 4.56 µM | > 25 µM | 
Cc1ccc(-c2nc3ccccc3s2)cc1NC(=O)c1cnccc1C#N | > 7 µM | > 13 µM | 

Compound | EC50 [1] | EC50 at 72 h [2] | also measured
COc1ccncc1C(=O)Nc1cc(-c2nc3ccccc3s2)ccc1C | > 12 µM | > 21 µM | 
O=C(Nc1cncc(-c2nc3ccccc3s2)c1)c1cnccc1Cl | > 5 µM | > 11 µM | 
N=C(N)c1ccc(OCCCCCOc2ccc(C(=N)N)cc2)cc1 |  |  | Activity [5]: Active
O=C(Nc1cccc(-c2nc3ccccc3s2)n1)c1cnccc1Cl | 0.09 µM | > 15 µM | solubility at 18 h [3]: < 1.56 µM; half-life at 20 µM [4]: 2 min
Cc1ccc(-c2nc3ccccc3s2)cc1NC(=O)c1cc([N+](=O)[O-])ccc1Cl | 0.039 µM | > 25 µM | solubility ([3]; buffer, pH 7.4, 18 h): Insoluble(Bld); half-life at 20 µM [4]: > 240 min
Cc1ccc(-c2nc3ccccc3s2)cc1NC(=O)c1cc([N+](=O)[O-])ccc1C#N | > 9 µM | > 17 µM | 
Cc1ccc(-c2nc3ccccc3s2)cc1NC(=O)c1cc(F)ccc1Cl | > 8 µM | > 15 µM | 
Cc1ccc(-c2nc3ccccc3s2)cc1NC(=O)c1cnccc1C(F)(F)F | > 7 µM | > 14 µM | 
O=C(Nc1cccc(-c2ncco2)c1)c1cc([N+](=O)[O-])ccc1Cl | > 8 µM | > 18 µM | 
O=C(NC1CCCC(c2nc3ccccc3s2)C1)c1cc([N+](=O)[O-])ccc1Cl (stereo not given) | > 7 µM | > 15 µM | 
Cc1ccc(-c2nnn[nH]2)nc1NC(=O)c1cnccc1Cl |  | > 18 µM | Activity [6]: inactive
Cc1ccc(-c2nc3ccccc3s2)cc1NC(=O)c1cnccc1F | > 10.6 µM | > 18 µM | 
Cc1ccc(-c2nc3ccccc3s2)cc1NC(=O)c1cnccc1O | > 8 µM | > 14 µM | 
CSc1ccc(Cl)c(C(=O)Nc2cccc(-c3nc4ccccc4s3)c2)c1 | > 33 µM | > 25 µM | 
Cc1ccc(-c2nc3ccccc3s2)cc1NC(=O)c1cc([N+](=O)[O-])ccc1C(F)(F)F | > 7 µM | > 15 µM | 
Cc1ccc(-c2nc3ccccc3s2)cc1NC(=O)c1cc(NC(=O)OC(C)(C)C)ccc1Cl | > 8 µM | > 15 µM | 
Cc1ccc(-c2nnn[nH]2)cc1NC(=O)c1cc([N+](=O)[O-])ccc1Cl | > 8 µM | > 18 µM | 
O=C(Nc1cccc(-c2nc3ccccc3s2)c1)c1cc([N+](=O)[O-])ccc1Cl | 0.1 µM | > 15 µM | solubility at 18 h [3]: < 1 µM; half-life at 20 µM [4]: 11 min
O=C(Nc1cncc(-c2nc3ccccc3s2)c1)c1cc([N+](=O)[O-])ccc1Cl | > 8 µM | > 15 µM | 
O=C(Nc1cccc(-c2ncc[nH]2)c1)c1cc([N+](=O)[O-])ccc1Cl | > 8 µM | > 18 µM | 
